Assay results reported in publication PMC8246325, “Toxicity of Jegosaponins A and B from Styrax japonica Siebold et al. Zuccarini in Prostate Cancer Cells and Zebrafish Embryos Resulting from Increased Membrane Permeability” (International Journal of Molecular Sciences, 2021).

Columns and labels:
[1] = test system: DU145; experiment: Cell viability assay (CellTiter-Glo) in DU145 cells; format: cell-based, human; conditions: 1 µM, 48 h (Figure S1)
Procedure: (§1) Human prostate cancer PC-3, […], and LNCaP cells were obtained from Riken Bioresource Center (Tokyo, Japan) and cultured in Dulbecco’s modified Eagle medium-low glucose (DMEM; Sigma-Aldrich, St. Louis, MO, USA), supplemented with 10% fetal bovine serum (FBS; Biowest SAS, Nuaille, France) and 1% penicillin-streptomycin (Fujifilm Wako Pure Chemicals) at 37 °C in a humidified 5% CO2 atmosphere. For screening, the cells were seeded (3 × 10^3 cells/well) in a 96-well plate and cultured for 24 h in DMEM supplemented with 1% FBS. The tested compounds were then administered to the cells. Forty-eight hours after administration, cell viability was measured using the CellTiter-Glo luminescent cell viability assay (Promega, Madison WI, USA) according to the manufacturer’s protocol. Luminescence signals were measured using a Victor2 microplate reader (PerkinElmer, Boston, MA, USA). For the negative control (0 μM jegosaponin A and B), 0.1% dimethyl sulfoxide (vehicle) was used. Cell viability was calculated as the ratio of the negative controls. The assay was performed in triplicate.

[2] = test system: LNCaP; experiment: Cell viability assay (CellTiter-Glo) in LNCaP cells; format: cell-based, human; conditions: 1 µM, 48 h (Figure S1)
Procedure: as §1

[3] = test system: 48 hpf zebrafish; experiment: DRAQ7 membrane permeability assay in zebrafish; format: in vivo, zebrafish (Danio rerio); conditions: for Lethality to zebrafish embryos at high concentration: 60 min; for DRAQ7 signals in zebrafish (cell membrane permeability): 30 min of exposure, mainly tail regions
Procedure: (§2) PC-3 cells were seeded (4 × 10^3 cells/well) in ibidi 8-well μ-Slide (Ibidi, Munich, Germany) in DMEM supplemented with 10% FBS and cultured for 24 h. Then, DRAQ7 (DRAQ7 DROP & GO; Biostatus, Shepshed, UK) and the tested compounds were added to the cells. After an appropriate time, the cells were imaged using a BZ-X710 fluorescence microscope (Keyence, Tokyo, Japan). For zebrafish embryos, 48 hpf embryos were treated with DRAQ7 and the tested compounds and imaged using a BZ-X710 fluorescent microscope.

[4] = test system: sheep red blood cells; experiment: Haemolysis assay; format: cell-based; conditions: Ovis aries, Erythrocyte; RBC, 1 h (Table 1); read-out: RBC Hemolysis HD50 (1 h)
Procedure: A haemolysis assay was performed as previously reported. Five millilitres of sheep defibrinated blood (Nippon Bio-Supp. Centre, Tokyo, Japan) was diluted in 45 mL of Dulbecco’s phosphate-buffered saline (DPBS) to obtain a total volume of 50 mL. The cell suspension was centrifuged at 500× g for 5 min, and the supernatant was discarded. This procedure was repeated three times, and DPBS was added to the precipitate, and the red blood cell (RBC) count was adjusted to ~5×10^8 cells/mL. The RBC suspension (500 µL) was placed into a 1.5 mL storage tube, and the reagent was administered and incubated for 30 min on ice. […] The cell suspension was then centrifuged at 500× g for 5 min. The haemoglobin concentration in the supernatant was measured by measuring the UV absorbance at 540 nm.

[5] = test system: PC-3 prostate cancer cells; experiment: Cell viability assay (CellTiter-Glo) in PC-3 cells; format: cell-based, human; conditions: for Suppression of viability of PC-3 cells: 1 µM, 48 h (Figure S1); for CC50: Homo sapiens, PC-3 cells, 48 h treatment, read-out: PC-3 cell viability, lethal concentration 50 (LC50)
Procedure: as §1

[6] = Zebrafish embryo acute toxicity test (ZFET); set-up: species or system zebrafish (Danio rerio); conditions: AB, in vivo, other: embryos exposed in 6-well plates; for LC50 at 120 h: embryos exposed from 5 hpf to 120 hpf; for LC50 at 24 h: embryos exposed from 5 hpf, 24 h after administration (to 24 hpf)
Procedure: Zebrafish AB strain (Zebrafish International Resource Center, Eugene, OR, USA) was maintained in our facility according to standard operational guidelines. All animal procedures were performed by the Ethics Committee of Mie University, according to the Japanese Animal Welfare Regulation ‘Act on Welfare and Management of Animals’ (Ministry of Environment of Japan), and complied with international guidelines.
ZFETs were performed as previously reported. In brief, blastula stage embryos (approximately 5 h post fertilisation (hpf)) were transferred into 6-well plates and exposed to jegosaponin A or B at 28 °C until 120 hpf. Each group contained nine fish in three triplicates. The number of surviving embryos was counted every 24 h.

[7] = test system: caspase-3 and caspase-7; experiment: Caspase 3/7 assay (Caspase-Glo 3/7) in PC-3 cells; format: cell-based, human; conditions: for Caspase 3/7 activities in PC-3 cells: 3 or 6 h; for Induction of caspase-3 and caspase-7 activities: PC-3 cells, sub-IC50 concentrations
Procedure: PC-3 cells were seeded (3 × 10^3 cells/well) in a 96-well plate in DMEM containing 10% FBS for 24 h and treated with the test compounds. Caspase-Glo 3/7 assay (Promega) was performed according to the manufacturer’s instructions. Luminescence signals were measured using a Victor2 microplate reader (PerkinElmer).

[8] = test system: PC-3 cells; experiment: DRAQ7 membrane permeability assay in PC-3 cells; format: cell-based; conditions: Homo sapiens; for IC50: 1 h (Table 1); for EC50: DRAQ7 membrane-impermeable dye, read-out: EC50 of DRAQ7 nucleus staining (DRAQ7 positive cells)
Procedure: as §2

Row | Compound | DRAQ7 signals in zebrafish (cell membrane permeability) [3] | EC50 [4] [µM] | Suppression of viability of PC-3 cells [5] | CC50 [5] [nM] | LC50 at 120 h [6] [nM] | LC50 at 24 h [6] [nM] | Induction of caspase-3 and caspase-7 activities [7] | IC50 [8] [µM] | EC50 [8] [µM] | also measured
1 | C/C=C(\C)C(=O)O[C@H]1[C@H](O)[C@@]2(COC(C)=O)C(CC1(C)C)C1=CCC3[C@@]4(C)CC[C@H](O[C@@H]5O[C@H](C(=O)O)[C@@H](O[C@@H]6O[C@H](CO)[C@H](O)[C@H](O)[C@H]6O[C@@H]6O[C@@H](C)[C@H](O)[C@@H](O)[C@H]6O)[C@H](O)[C@H]5O[C@@H]5O[C@H](CO)[C@@H](O)[C@H](O)[C@H]5O)C(C)(C)C4CC[C@@]3(C)[C@]1(C)C[C@H]2O (stereo partly drawn) [Jegosaponin B, jegosaponin B] | apparently increased DRAQ7 signals | 20.2 | suppress viability | 1600 | 1300 | 1400 | no apparent induction of their activities | 6 | 6 ± 1.2 | Suppression of viability of DU145 cells ([1]; listed as B): suppress viability; Suppression of viability of DU145 cells ([1]; listed as jegosaponin B): suppressed the viability; Suppression of viability of LNCaP cells ([2]; listed as B): suppress viability; Suppression of viability of LNCaP cells ([2]; listed as jegosaponin B): suppressed the viability; Lethality to zebrafish embryos at high concentration ([3]; 12 μM): killed all embryos; Caspase 3/7 activities in PC-3 cells ([7]; 0.5 µM): do not affect caspase 3/7 activities
2 | C/C=C(\C)C(=O)O[C@H]1[C@H](OC(C)=O)[C@@]2(CO)C(CC1(C)C)C1=CCC3[C@@]4(C)CC[C@H](O[C@@H]5O[C@H](C(=O)O)[C@@H](O[C@@H]6O[C@H](CO)[C@H](O)[C@H](O)[C@H]6O[C@@H]6O[C@@H](C)[C@H](O)[C@@H](O)[C@H]6O)[C@H](O)[C@H]5O[C@@H]5O[C@H](CO)[C@@H](O)[C@H](O)[C@H]5O)C(C)(C)C4CC[C@@]3(C)[C@]1(C)C[C@H]2O (stereo partly drawn) [Jegosaponin A, jegosaponin A] | apparently increased DRAQ7 signals | 2.1 | suppress viability | 700 | 500 | 700 | no apparent induction of their activities | 3.4 | 3.4 ± 0.6 | Suppression of viability of DU145 cells [1]: suppress viability; Suppression of viability of DU145 cells ([1]; listed as jegosaponin A): suppressed the viability; Suppression of viability of LNCaP cells [2]: suppress viability; Suppression of viability of LNCaP cells ([2]; listed as jegosaponin A): suppressed the viability; Lethality to zebrafish embryos at high concentration ([3]; 6 μM): killed all embryos; Caspase 3/7 activities in PC-3 cells ([7]; 1.5 µM): do not affect caspase 3/7 activities
